Results: patent US9670157B2, “Benzylamine derivatives” (KALVISTA PHARMACEUTICALS LIMITED, priority 2013, dated 2017)

Key:
[1] = biological target: Human KLK1 (Homo sapiens (Human), UniProt P06870); experiment: Determination of the IC50 for KLK1; assay type: biochemical; settings: 37° C., fluorogenic substrate H-DVal-Leu-Arg-AFC
Procedure, shortened: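 KLK1 inhibition was measured in vitro following standard published methods. Human KLK1 (Callbiochem) was incubated at 37° C. with the fluorogenic substrate H-DVal-Leu-Arg-AFC in the presence of a range of test compound concentrations. Residual enzyme activity, taken as the initial reaction rate, was followed by the change in optical absorbance at 410 nm, and IC50 values were derived.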

[2] = Pharmacokinetics following a single oral dose in rats; assay type: in vivo; settings: rat, nominal 10 mg/kg, male Sprague-Dawley rats, plasma
Experimental: Pharmacokinetic studies of selected examples were performed to assess the pharmacokinetics following a single oral dose in male Sprague-Dawley rats. Typically, either two or three rats were given a single po dose of 5 mL/kg of a nominal 2 mg/mL (10 mg/kg) composition of test compound in either 5% cremophor:5% ethanol:90% phosphate buffered saline or 20% Labrasol:80% water. Following dosing, blood samples were collected over a period of 8 hours. Typical sample times include 5, 15 and 30 minutes then 1, 2, 4, 6 and 8 hours. Following collection, blood samples were centrifuged and the plasma fraction analysed for concentration of test compound by LCMS.

[3] = biological target: Human plasma kallikrein (Homo sapiens (Human), UniProt P03952); experiment: Determination of the IC50 for Plasma Kallikrein; assay type: biochemical; settings: 37° C., fluorogenic substrate H-DPro-Phe-Arg-AFC; read-out: IC50 (human PKal)
Experimental: Human plasma kallikrein (Protogen) was incubated at 37° C. with the fluorogenic substrate H-DPro-Phe-Arg-AFC and various concentrations of the test compound. Residual enzyme activity (initial rate of reaction) was determined by measuring the change in optical absorbance at 410 nm and the IC50 value for the test compound was determined.

[4] = biological target: Factor XIIa (Homo sapiens (Human), UniProt P00748); experiment: Determination of Enzyme Selectivity: Factor XIIa; assay type: biochemical; settings: substrate at Km concentration
Experimental: Human serine protease enzymes plasmin, thrombin, trypsin, Factor Xa and Factor XIIa were assayed for enzymatic activity using an appropriate fluorogenic substrate. Protease activity was measured by monitoring the accumulation of liberated fluorescence from the substrate over 5 minutes. The linear rate of fluorescence increase per minute was expressed as percentage (%) activity. The Km for the cleavage of each substrate was determined by standard transformation of the Michaelis-Menten equation.

Chain of Factor XIIa (P00748 373-615): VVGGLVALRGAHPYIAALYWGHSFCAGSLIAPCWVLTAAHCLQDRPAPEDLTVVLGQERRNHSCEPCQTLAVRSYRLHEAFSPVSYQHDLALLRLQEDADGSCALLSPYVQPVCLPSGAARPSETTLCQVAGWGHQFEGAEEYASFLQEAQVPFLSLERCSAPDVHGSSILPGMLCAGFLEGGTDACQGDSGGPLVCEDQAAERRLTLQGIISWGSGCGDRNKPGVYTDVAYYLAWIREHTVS
Chain of Human KLK1 (P06870 25-262): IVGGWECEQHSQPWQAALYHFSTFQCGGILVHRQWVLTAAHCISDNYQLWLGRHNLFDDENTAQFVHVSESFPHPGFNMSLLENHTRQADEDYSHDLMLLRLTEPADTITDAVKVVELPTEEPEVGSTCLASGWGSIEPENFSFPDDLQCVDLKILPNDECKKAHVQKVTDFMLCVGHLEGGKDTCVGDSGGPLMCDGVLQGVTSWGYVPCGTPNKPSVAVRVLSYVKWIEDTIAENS
Chain of Human plasma kallikrein (P03952 391-638): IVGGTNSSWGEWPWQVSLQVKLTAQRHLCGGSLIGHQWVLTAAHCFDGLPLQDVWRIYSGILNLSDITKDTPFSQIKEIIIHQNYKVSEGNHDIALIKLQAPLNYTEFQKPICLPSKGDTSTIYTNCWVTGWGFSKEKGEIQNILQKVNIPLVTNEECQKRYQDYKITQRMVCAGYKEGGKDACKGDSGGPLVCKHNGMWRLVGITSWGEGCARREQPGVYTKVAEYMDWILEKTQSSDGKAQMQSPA
Chain of Human plasma kallikrein (P03952 20-390 partner): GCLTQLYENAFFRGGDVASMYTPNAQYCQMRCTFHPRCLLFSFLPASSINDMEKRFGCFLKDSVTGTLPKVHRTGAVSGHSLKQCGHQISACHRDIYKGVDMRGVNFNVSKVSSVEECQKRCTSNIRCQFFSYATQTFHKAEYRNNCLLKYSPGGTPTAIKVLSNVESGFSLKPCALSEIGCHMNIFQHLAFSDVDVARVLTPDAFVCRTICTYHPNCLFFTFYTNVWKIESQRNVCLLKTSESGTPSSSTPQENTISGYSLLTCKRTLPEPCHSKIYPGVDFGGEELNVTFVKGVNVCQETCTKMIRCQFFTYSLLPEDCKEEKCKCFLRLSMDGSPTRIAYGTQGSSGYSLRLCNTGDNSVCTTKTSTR

IC50 [1] | Cmax [2] | Tmax [2] | IC50 [3] | IC50 [4] | Structure (SMILES)
> 10 µM | 171 ng/mL | 3.5 h | 0.17 µM | – | Cc1cc(C(=O)NCc2ccc(CN)cc2)c(C)n1Cc1csc(-c2ccsc2)n1 [Example 37, 2,5-Dimethyl-1-(2-thiophen-3-yl-thiazol-4-ylmethyl)-1H-pyrrole-3-carboxylic acid 4-aminomethyl-benzylamide]
> 10 µM | 71 ng/mL | 4 h | 0.196 µM | – | Cc1cc(C(=O)NCc2ccc(CN)nc2)c(C)n1Cc1csc(-c2ccccc2)n1 [Example 43, 2,5-Dimethyl-1-(2-phenyl-thiazol-4-ylmethyl)-1H-pyrrole-3-carboxylic acid (6-aminomethyl-pyridin-3-ylmethyl)-amide]
> 10 µM | 228 ng/mL | 2.58 h | 0.135 µM | – | Cc1cc(C(=O)NCc2ccc(CN)c(F)c2)c(C)n1Cc1csc(-c2ccccc2)n1 [Example 45, 2,5-Dimethyl-1-(2-phenyl-thiazol-4-ylmethyl)-1H-pyrrole-3-carboxylic acid 4-aminomethyl-3-fluoro-benzylamide]
> 10 µM | – | – | 2.58 µM | – | Cc1cnn(Cc2ccc(Cn3cc(C(=O)NCc4ccc(C5(N)CC5)cc4)nn3)cc2)c1 [Example 110, 1-[4-(4-Methyl-pyrazol-1-ylmethyl)-benzyl]-1H-[1,2,3]triazole-4-carboxylic acid 4-(1-amino-cyclopropyl)-benzylamide]
> 10 µM | – | – | 0.001 µM | – | Cc1cnn(Cc2ccc(Cn3cc(C(=O)NCc4c(C)cc(CN)cc4C)cn3)cc2)c1 [Example 111, 1-[4-(4-Methyl-pyrazol-1-ylmethyl)-benzyl]-1H-pyrazole-4-carboxylic acid 4-aminomethyl-2,6-dimethyl-benzylamide]
> 10 µM | – | – | 0.002 µM | – | Cc1cnn(Cc2ccc(Cn3cnc(C(=O)NCc4c(C)cc(CN)cc4C)c3)cc2)c1 [Example 112, 1-[4-(4-Methyl-pyrazol-1-ylmethyl)-benzyl]-1H-imidazole-4-carboxylic acid 4-aminomethyl-2,6-dimethyl-benzylamide]
> 10 µM | – | – | 0.002 µM | – | Cc1cnn(Cc2ccc(Cn3cc(C(=O)NCc4c(C)cc(CN)cc4C)nn3)cc2)c1 [Example 113, 1-[4-(4-Methyl-pyrazol-1-ylmethyl)-benzyl]-1H-[1,2,3]triazole-4-carboxylic acid 4-aminomethyl-2,6-dimethyl-benzylamide]
> 10 µM | – | – | 0.0006 µM | – | Cc1cnn(Cc2ccc(Cn3cc(C(=O)NCc4c(C)cc(CN)cc4C)c(C)n3)cc2)c1 [Example 114, 3-Methyl-1-[4-(4-methyl-pyrazol-1-ylmethyl)-benzyl]-1H-pyrazole-4-carboxylic acid 4-aminomethyl-2,6-dimethyl-benzylamide]
> 10 µM | – | – | 0.008 µM | – | Cc1cnn(Cc2ccc(Cn3ncc(C(=O)NCc4c(C)cc(CN)cc4C)c3C)cc2)c1 [Example 115, 5-Methyl-1-[4-(4-methyl-pyrazol-1-ylmethyl)-benzyl]-1H-pyrazole-4-carboxylic acid 4-aminomethyl-2,6-dimethyl-benzylamide]
> 10 µM | – | – | 11.7 µM | – | Cc1cnn(Cc2ccc(Cn3nc(C)c(C(=O)NCc4c(C)cc(CN)cc4C)c3C)cc2)c1 [Example 116, 3,5-Dimethyl-1-[4-(4-methyl-pyrazol-1-ylmethyl)-benzyl]-1H-pyrazole-4-carboxylic acid 4-aminomethyl-2,6-dimethyl-benzylamide]
> 10 µM | – | – | 0.051 µM | – | Cc1cnn(Cc2ccc(Cn3cc(C(=O)NCc4ccc(CN)c(F)c4)c(C(F)(F)F)n3)cc2)c1 [Example 117, 1-[4-(4-Methyl-pyrazol-1-ylmethyl)-benzyl]-3-trifluoromethyl-1H-pyrazole-4-carboxylic acid 4-aminomethyl-3-fluoro-benzylamide]
> 10 µM | – | – | 0.001 µM | – | Cc1cnn(Cc2ccc(Cn3cc(C(=O)NCc4c(C)cc(CN)cc4C)c(C(F)(F)F)n3)cc2)c1 [Example 118, 1-[4-(4-Methyl-pyrazol-1-ylmethyl)-benzyl]-3-trifluoromethyl-1H-pyrazole-4-carboxylic acid 4-aminomethyl-2,6-dimethyl-benzylamide]
> 10 µM | – | – | 0.009 µM | > 40 µM | Cc1cnn(Cc2ccc(Cn3cc(C(=O)NCc4ccc(CN)c(F)c4C)c(C(F)(F)F)n3)cc2)c1 [Example 119, 1-[4-(4-Methyl-pyrazol-1-ylmethyl)-benzyl]-3-trifluoromethyl-1H-pyrazole-4-carboxylic acid 4-aminomethyl-3-fluoro-2-methyl-benzylamide]
> 10 µM | – | – | 0.155 µM | – | CCn1c(C(=O)NCc2ccc(CN)cc2)cc(C)c1Cc1ccc(Cn2cc(C)cn2)cc1 [Example 121, 1-Ethyl-4-methyl-5-[4-(4-methyl-pyrazol-1-ylmethyl)-benzyl]-1H-pyrrole-2-carboxylic acid 4-aminomethyl-benzylamide]
> 10 µM | – | – | 0.151 µM | – | CCn1c(C(=O)NCc2ccc(CN)cc2)cc(C)c1Cc1ccc(Cn2ccccc2=O)cc1 [Example 122, 1-Ethyl-4-methyl-5-[4-(2-oxo-2H-pyridin-1-ylmethyl)-benzyl]-1H-pyrrole-2-carboxylic acid 4-aminomethyl-benzylamide]
> 10 µM | – | – | 2.15 µM | – | CCn1c(C(=O)NCc2ccc(CN)cc2)cc(C)c1Cc1csc(-c2ccccc2)n1 [Example 123, 1-Ethyl-4-methyl-5-(2-phenyl-thiazol-4-ylmethyl)-1H-pyrrole-2-carboxylic acid 4-aminomethyl-benzylamide]
0.301 µM | – | – | 0.002 µM | > 40 µM | Cc1ccc2cc(Cn3cc(C(=O)NCc4c(C)cc(CN)cc4C)c(C)n3)ccc2n1 [Example 124, 3-Methyl-1-(2-methyl-quinolin-6-ylmethyl)-1H-pyrazole-4-carboxylic acid 4-aminomethyl-2,6-dimethyl-benzylamide]
0.566 µM | – | – | – | > 40 µM | Cc1ccc2cc(Cn3cc(C(=O)NCc4c(C)cc(CN)cc4C)c(C(F)(F)F)n3)ccc2n1 [Example 126, 1-(2-Methyl-quinolin-6-ylmethyl)-3-trifluoromethyl-1H-pyrazole-4-carboxylic acid 4-aminomethyl-2,6-dimethyl-benzylamide]
> 10 µM | – | – | – | > 40 µM | Cc1ccc2cc(Cn3ncc(C(=O)NCc4c(C)cc(CN)cc4C)c3C(F)(F)F)ccc2n1 [Example 127, 1-(2-Methyl-quinolin-6-ylmethyl)-5-trifluoromethyl-1H-pyrazole-4-carboxylic acid 4-aminomethyl-2,6-dimethyl-benzylamide]
2.66 µM | – | – | 0.934 µM | – | Cc1ccc2cc(Cn3c(C)cc(C(=O)NCc4c(C)cc(CN)cc4C)c3C)ccc2n1 [Example 128, 2,5-Dimethyl-1-(2-methyl-quinolin-6-ylmethyl)-1H-pyrrole-3-carboxylic acid 4-aminomethyl-2,6-dimethyl-benzylamide]
> 10 µM | – | – | 0.024 µM | – | Cc1cc(CN)cc(C)c1CNC(=O)c1cn(Cc2ccnc(N3CCCC3)c2)nc1C(F)(F)F [Example 129, 1-(2-Pyrrolidin-1-yl-pyridin-4-ylmethyl)-3-trifluoromethyl-1H-pyrazole-4-carboxylic acid 4-aminomethyl-2,6-dimethyl-benzylamide]
